Laboratory results taken from patent US7326407B2, “Amine, amide, sulphonamide and carbamate derivatives of benzalmalonic salts and photoprotective cosmetic compositions comprised thereof” (L'Oreal, priority 2003, dated 2008).
Where a name gives a salt, the structure may show the parent alone. Each block holds one molecule with its values, some of them ahead of it.

Assay: UV absorption spectrum in water
Type: physicochemical
Details: for UV E1% / UV εmax: at λmax

- UV λmax: 306 nm
- UV E1%: 496
- UV εmax: 14000 L/mol/cm
Molecule: Nc1ccc(C=C(C(=O)O)C(=O)O)cc1 [Example 3, dipotassium salt of 2-(4-aminobenzylidene)malonic acid]

- UV λmax: 292 nm
- UV E1%: 498
- UV εmax: 16200 L/mol/cm
Molecule: CC(=O)Nc1ccc(C=C(C(=O)O)C(=O)O)cc1 [Example 4, dipotassium salt of 2-(4-acetamidobenzylidene)malonic acid]

- UV λmax: 292 nm
- UV E1%: 422
- UV εmax: 14000 L/mol/cm
Molecule: dipotassium salt of 2-(4-laurylamidobenzylidene)malonic acid [Example 5]

Continued, molecule first:

Molecule: Nc1ccc(C=C(C(=O)O)C(=O)O)cc1 [Example 1, dipiperidinium salt of 2-(4-aminobenzylidene)malonic acid]
- UV λmax: 305 nm
- UV E1%: 446
- UV εmax: 16800 L/mol/cm

Molecule: Nc1ccc(C=C(C(=O)O)C(=O)O)cc1 [Example 2, disodium salt of 2-(4-aminobenzylidene)malonic acid]
- UV λmax: 305 nm
- UV E1%: 670
- UV εmax: 16800 L/mol/cm
